Measurements: article PMC10574562 (Molecules, 2023)
“Also recorded” adds a separate entry of the source.

Experiments:
[1] = Determination of distribution coefficient LogD7.4 (1-octanol/PBS); assay type: physicochemical; settings: 1-octanol/PBS pH 7.4; ± SD; read-out: Log D7.4
Procedure: (§1) We experimentally confirmed their predicted poor to medium–good permeability profile by measuring their LogD at physiological pH through a known procedure, and by determining their percentage bound to model lipid bilayers after incubation, as a measure of their affinity for cell-membrane-like liposomes. Results are shown in Table 2 (LogD7.4, column 2; interaction with liposomes at 20 °C and 37 °C, columns 3 and 4, respectively).
LogD7.4 values were determined by slightly modifying a reported procedure. Namely, an 80 mM solution of each selected EDA analogue in DMSO was diluted in 1-octanol at a final 800 μM concentration. UV–vis spectra were acquired to determine λmax and the necessary dilutions to obtain absorption values for each tested analogue; between 0.5 and 1. 5 mL of each solution were placed in 15 mL conical centrifuge tubes, PBS was added (5 mL, pH 7.4) and the biphasic system was vigorously mixed using a vortex mixer (VELP Scientifica, Usmate Velate, MB, Italy) for 4 min. After centrifugation (2000× g, 30 min), the 1-octanol phase absorption was measured at each compound’ λmax; the procedure was repeated to acquire data in triplicate. The distribution coefficient logD7.4 was calculated according to the following equation: LogD7.4 = Log ([C]oct/[C]PBS) = Log (Af/Ai − Af)(2) where Ai is the pre-extraction measured absorbance in 1-octanol and Af is the post-extraction final measured absorbance in 1-octanol.

[2] = Interaction with liposome cell membrane models; assay type: in vitro ADME
Procedure: as §1
EDA analogues dissolved in MeOH (0.1 mL) were added to 0.9 mL of large unilamellar phosphatidylcholine vesicles (PC LUVs) in PBS (3 mM lipid final concentration; 0.6 mM EDA analogue final concentration) and incubated at 37 °C for 20 min. Then, any remaining free EDA analogue was separated from liposomes by size-exclusion chromatography.
A disposable syringe (2.5 mL) packed with hydrated Sephadex G-50 resin was placed in a 15 mL plastic test tube and preconditioned with PBS; then, the liposomal suspension (1 mL) was gently added on the top of the syringe and centrifuged at 500× g for 10 min. The eluate was collected at the bottom of the test tube and lysed by addition of Triton X-100 (final concentration 1% v/v). The concentration of each EDA analogue in each solution was estimated with the Folin–Ciocalteu assay. Namely, 50% Folin–Ciocalteu reagent (150 μL) was added to test samples (50 μL) into a 96-well microplate and shaken. After 10 min, a 7.5% sodium carbonate solution (0.1 mL) was added; the mixtures were incubated in the dark for 1 h at rt; and, finally, the absorbance was measured at 765 nm on a BioTek SynergyHT MicroPlate Reader spectrophotometer (Marshall Scientific, Hampton, NH, USA) using an appropriate blank. Reference calibration curves were plotted for every sample. The ratio (%) of the drug incorporated into the lipid bilayer was then calculated according to the following equation:% ratio of incorporated antioxidant = 100 × [incorporated amount]/[added amount](3)

[3] = system: Cu-induced ROS; assay: Cu-induced ROS inhibition; settings: ± SD
From the text: Table 2 In vitro profiling for EDA 1 and selected analogues 2b, 2c and 4a. | column: Cu-Induced ROS Inhibition ^c,a

[4] = DPPH radical scavenging assay; settings: 25 µM analogue, 100 µM DPPH, MeOH, 30 min incubation
Procedure: A DPPH assay was carried out after 30 min of incubation with EDA 1 and its analogues in reported conditions to determine their radical scavenging ability.
The DPPH free radical scavenging activity of EDA analogues was determined using a previously described method. Appropriate aliquots of putative antioxidants 1–13c were mixed with DPPH in methanol (25 µM EDA analogue, 100 µM DPPH, final concentration); the reaction mixtures were shaken and then incubated for 30 min in the dark. Their absorbances, and the absorbance of a DPPH solution as a negative control, were then measured at 517 nm with a BioTek SynergyHT MicroPlate Reader spectrophotometer (Marshall Scientific, Hampton, NH, USA) against methanol as blank. The scavenging percentage of each EDA analogue was calculated according to the following equation:DPPH radical scavenging (%) = [(Acontrol—Asample)/Acontrol] × 100,(1) where Acontrol is the control absorbance obtained by adding a methanol aliquot equal to the EDA analogue solution volume added to the methanolic DPPH solution and Asample is the absorbance of each test solution after 30 min incubation. All experiments were repeated at least three times, and measurements were run in triplicate.

[5] = system: oligodendrocyte progenitor cells (OPCs); assay: MTT reduction assay on purified OPC cultures; assay type: cell-based, mouse; settings: lower dosages than 10 μM (not shown)
[6] = system: oligodendrocyte progenitor cells (OPCs); assay: MTT reduction assay on purified OPC cultures; assay type: cell-based, mouse; settings: 10 μM; for Effect on metabolic activity of OPCs (MTT reduction): 48 h incubation, purified mouse OPCs, vs DMSO controls
Procedure: Purified mouse OPCs were grown for 24 h and treated with EDA 1 and analogues 2b–4c (10 μM) for 44 h; then, MTT was added and OPCs were incubated for 4 h.
Primary cultures of purified OPC (>99%) were obtained from the cerebral hemispheres of newborn CD1 Swiss mice according to the authorization for the care and use of laboratory animals mentioned in Section 4.2.1. OPCs were grown in a defined serum-free Dulbecco’s Modified Eagle Medium (DMEM) without thyroid hormones at 1 × 10^5 cells/cm^2 into poly-L-lysine-coated 96-well microtiter plates for 3 days.
One day after plating, purified OPCs were incubated with or without EDA analogues (10 µM) in DMSO (0.001% vehicle) for 48 h. MTT reduction to formazan was carried out as previously described. MTT (Sigma-Aldrich, Milan, Italy) was added to the culture medium at a final 0.25 mg/mL concentration during the last 4 h of incubation.

[7] = Chemical stability in biological media (DPPH assay and TLC); assay type: in vitro ADME; settings: PBS and standard medium, 20 min
Procedure: We investigated the stability of 4′-ester EDA 2c and N^1-carbamate 4′-ester EDA 4a (respectively, black and grey bars, Figure 5) in biological media, checking both ester and N^1-carbamate stability in 4a both by thin-layer chromatography (TLC) and by checking the DPPH radical scavenging activity of 2c and 4a after incubation.
Namely, 2c and 4a were incubated in PBS and in standard medium at 20 °C and 37 °C for 20 min; then, DPPH was added and the radical scavenging activity was measured in all media.
4′-Ester 2c and N^1-carbamate ester 4a were incubated in PBS and in a standard cell culture medium supplemented with FBS 10% at 20 °C and 37 °C. After 20 min, appropriate aliquots of the solutions were mixed with DPPH in methanol (25 µM, DPPH 100 µM, final concentration) and the DPPH radical scavenging assay was carried out as described above. Assay media after incubation were also monitored by TLC (eluent mixture: 1:1 cyclohexane/AcOEt).

Row | SMILES | logD [1] | Affinity for a Model Lipid Bilayer, % ratio of liposome-bound EDA analogue ([2]; 20 °C) [%] | Affinity for a Model Lipid Bilayer, % ratio of liposome-bound EDA analogue ([2]; 37 °C) [%] | IC50 [3] [µM] | DPPH radical scavenging/antioxidant activity [4] | Effect on metabolic activity of OPCs (MTT reduction) [6] | other results
1 | CC1=NN(c2ccc(C(=O)O)cc2)C(=O)C1 [Compound 2b] | -0.74 ± 0.19 | 38 ± 4 | 45 ± 2 | 38 ± 5 | significantly more potent than EDA 1; also recorded: significantly higher antioxidant activity than parent EDA 1 |  | 
2 | CCC1=NN(c2ccccc2)C(=O)C1 [Compound 3a] |  |  |  |  | comparable antioxidant activity to EDA 1 |  | OPC activity in MTT assay at lower dosages [5]: inactive at lower dosages; Cytotoxicity on OPCs in MTT assay [6]: cytotoxic at this concentration
3 | COC(=O)c1ccc(-n2c(=O)cc(C)n2C(=O)OC(C)(C)C)cc1 [Compound 4a, Tert-butyl 2-(4-(methoxycarbonyl)phenyl)-5-methyl-3-oxo-2,3-dihydro-1H-pyrazole-1-carboxylate] | 2.3 ± 0.4 | 88 ± 6 | 77 ± 4 | 65 ± 6 |  | stimulated OPC metabolism comparably to EDA 1; also recorded: comparable stimulation of OPC metabolism | DPPH radical scavenging activity after incubation in biological media ([7]; 20 °C): did not scavenge DPPH; Stability in biological media by TLC ([7]; 20 °C): stability was confirmed by TLC; DPPH radical scavenging activity after incubation in biological media ([7]; 37 °C): significant antioxidant activity was detected; Stability in biological media by TLC (N^1-carbamate) ([7]; 37 °C): N^1-carbamate hydrolysis and 2c formation; also recorded: fully removed
4 | CC1=NN(c2ccc(C(=O)NCCCCCCN=[N+]=[N-])cc2)C(=O)C1 [Compound 2e] |  |  |  |  |  | did not stimulate OPC development compared to DMSO controls; also recorded: lack of activity on OPCs | 
5 | CC1=NN(c2ccc(C(=O)NCCN=[N+]=[N-])cc2)C(=O)C1 [Compound 2d] |  |  |  |  | comparable antioxidant activity to EDA 1 | did not stimulate OPC development compared to DMSO controls; also recorded: lack of activity on OPCs | 
6 | CC1=NN(c2ccc(C(=O)NCc3ccc(C4(C(F)(F)F)N=N4)cc3)cc2)C(=O)C1 [Compound 2f] |  |  |  |  |  | lack of activity on OPCs | OPC activity in MTT assay at lower dosages [5]: inactive at lower dosages; Cytotoxicity on OPCs in MTT assay [6]: cytotoxic at this concentration
7 | CC1=NN(c2ccc(CN=[N+]=[N-])cc2)C(=O)C1 [Compound 2h] |  |  |  |  | comparable antioxidant activity to EDA 1 | did not stimulate OPC development compared to DMSO controls; also recorded: lack of activity on OPCs | 
8 | COC(=O)c1ccc(N2N=C(C)CC2=O)cc1 [Compound 2c, Methyl 4-(3-methyl-5-oxo-4,5-dihydro-1H-pyrazol-1-yl)benzoate] | 1 ± 0.1 | 52 ± 2 | 71 ± 2 | 53 ± 7 | comparable antioxidant activity to EDA 1 | stimulated OPC metabolism comparably to EDA 1; also recorded: comparable stimulation of OPC metabolism | DPPH radical scavenging activity after incubation in biological media ([7]; 20 °C and 37 °C): expected radical scavenging activity; Stability in biological media by TLC ([7]; 20 °C and 37 °C): stability in biological media was confirmed
9 | CC1=NN(c2ccccc2)C(=O)C1 [Compound 1, edaravone, reference compound] | 1.1 ± 0.1 | 37 ± 3 | 53 ± 2 | 14 ± 2 |  |  | 
10 | CC1=NN(c2ccc(CO)cc2)C(=O)C1 [Compound 2g] |  |  |  |  | comparable antioxidant activity to EDA 1 |  | 
11 | O=C1CC(COCc2ccccc2)=NN1c1ccccc1 [Compound 3b] |  |  |  |  | comparable antioxidant activity to EDA 1 |  | 
